Test results from patent US20130287890A1, “INHIBITOR OF THE PRODUCTION OF ADVANCED GLYCATION END PRODUCTS” (UENO FINE CHEMICALS INDUSTRY, LTD., priority 2012, published 2013).

Legend:
[1] = tested on: 3-DG; experiment: Quantitative determination of 3-DG (HPLC) after reaction of amino acids or food-derived proteins with carbohydrates at 120° C. for 60 minutes; format: biochemical; conditions: for 3-DG: 120° C., 60 minutes
Experimental: Amino acids, carbohydrates and a phosphate buffer solution were charged in a 30 mL glass test tube in each amount shown in Table 1, followed by sealing and stirring. After reacting in an autoclave at 120° C. for 60 minutes, the reaction solution was cooled and then filtered through a 0.2 μm filter. The filtrate thus obtained was used as a sample. The amino acids and carbohydrates used are as follows.
To 2 mL of a sample, the same amount of a 60% perchloric acid solution was added to deproteinize the sample. The sample was neutralized with 4 mL of an aqueous saturated sodium hydrogen carbonate solution and 0.8 mL of a 0.1% methanol solution of 2,3-diaminonaphthalene was added, and then the mixture was reacted at 4° C. for 16 hours. Next, the reactant was extracted with 4.4 mL of ethyl acetate, concentrated to dryness using an evaporator, dissolved in 5 mL of methanol, and then filtered through a 0.45 μm filter. The filtrate was subjected to high-performance liquid chromatography and 3-DG was quantitatively determined under the following measurement conditions.
Injection amount: 20 μL Column: TSK-GEL, ODS-80Ts (4.6×150 mm, manufactured by TOSOH CORPORATION) Column temperature: 30° C. Mobile phase: 50 mM phosphoric acid:methanol:acetonitrile=7:1.5:1.5 Flow rate: 1 mL/min.
Food-derived proteins, carbohydrates and a phosphate buffer solution were charged in a 30 mL glass test tube in each amount shown in Table 6, followed by sealing and stirring, and then the mixture was reacted in an autoclave at 120° C. for 60 minutes. Next, the reactant was fractionated by centrifugation at 3,000 rpm for 3 hours using an ultrafiltration unit (VIVA SPIN 20, manufactured by Sartorius Corporation). The obtained low molecular weight fraction was used as a sample for determination of 3-DG, while the obtained high molecular weight fraction was used as a sample for the determination of fluorescent AGEs, RAGE agonist activity and RAGE antagonist activity. Food-derived proteins and carbohydrates used are as follows: […]

[2] = tested on: fluorescent AGEs; experiment: Quantitative determination of fluorescent AGEs (relative to perylene) after reaction at 120° C. for 60 minutes; format: biochemical; conditions: for Fluorescent AGEs: 120° C., 60 minutes
Experimental: Amino acids, carbohydrates and a phosphate buffer solution were charged in a 30 mL glass test tube in each amount shown in Table 1, followed by sealing and stirring. […] The filtrate thus obtained was used as a sample. The amino acids and carbohydrates used are as follows. After weighing 2.5 mg of a standard substance perylene, the standard substance perylene was fully dissolved in 50 mL of deaerated ethanol added thereto to prepare a perylene solution. The perylene solution diluted to the concentration of 10 μM was exposed to excitation light with a wavelength of 386 nm and then the area was calculated by measuring a fluorescence intensity ranging from 410 to 600 nm. […] Food-derived proteins, carbohydrates and a phosphate buffer solution were charged in a 30 mL glass test tube in each amount shown in Table 6, followed by sealing and stirring, and then the mixture was reacted in an autoclave at 120° C. for 60 minutes. Next, the reactant was fractionated by centrifugation at 3,000 rpm for 3 hours using an ultrafiltration unit (VIVA SPIN 20, manufactured by Sartorius Corporation). […] Food-derived proteins and carbohydrates used are as follows: After 0.4 g of a high molecular weight fraction and 8 mL of 6N hydrochloric acid were charged in an ampule and the air in the ampule was replaced with nitrogen, hydrolysis was performed at 110° C. for 16 hours in a heat block. After reaction, 8 mL of 5N sodium hydroxide was added, and pH was adjusted using 1N hydrochloric acid and 1N sodium hydroxide to make pH within a range of 7.2 to 7.6. […] Using the thus obtained filtrate as a sample, fluorescent AGEs were quantitatively determined using the following methods. After weighing 2.5 mg of a standard substance perylene, the standard substance perylene was fully dissolved in 10 mL of deaerated ethanol added thereto to prepare a perylene solution. The perylene solution diluted to the concentration of 10 μM was exposed to excitation light with a wavelength of 386 nm and then the area was calculated by measuring a fluorescence intensity ranging from 410 to 600 nm.

[3] = biological target: T1, human RAGE (Homo sapiens, UniProt Q15109); experiment: RAGE agonist activity of reaction samples (120° C., 60 minutes), NF-κB luciferase assay in C6 glioma cells; format: cell-based, rat; conditions: Test Example 2
T1 construct: human RAGE plasmid (including full-length human RAGE cDNA); expressed in transfected cells; host or cells: C6 glioma cells carrying pNF-κB-Luc plasmid and human RAGE plasmid
Experimental: Food-derived proteins, carbohydrates and a phosphate buffer solution were charged in a 30 mL glass test tube in each amount shown in Table 6, followed by sealing and stirring, and then the mixture was reacted in an autoclave at 120° C. for 60 minutes. Next, the reactant was fractionated by centrifugation at 3,000 rpm for 3 hours using an ultrafiltration unit (VIVA SPIN 20, manufactured by Sartorius Corporation). The obtained low molecular weight fraction was used as a sample for determination of 3-DG, while the obtained high molecular weight fraction was used as a sample for the determination of fluorescent AGEs, RAGE agonist activity and RAGE antagonist activity. Food-derived proteins and carbohydrates used are as follows:
Using Luciferase Assay System (manufactured by Promega Corporation), evaluation of RAGE agonist activity was performed. (Day 1) According to the methods disclosed in Diabetes, 2006, vol. 55, pp. 2510-2522, C6 glioma cells into which pNF-κB-Luc plasmid (manufactured by Stratagene Corporation) and human RAGE plasmid (including full-length human RAGE cDNA) have been introduced were seeded at 100 μL/well into a 96-well plate and cultured in a CO2 incubator until the cells were confluent. For the culture, 10% FBS/DMEM medium was used. (Day 2) The medium was removed, and after wells were washed with 300 μL of serum-free DMEM medium, 100 μL of 0.1% FBS/DMEM medium was slowly added. Then, the medium was incubated overnight in a CO2 incubator. (Day 3) The sample was diluted using the medium, and 50 μL of the diluted sample was added to each well. AGE-BSA in which AGE was formed with glyceraldehydes (50 μg/mL) was added to a control well. After incubation in a CO2 incubator for 4 hours, the medium was removed and wells were washed 2 times with 300 μL of PBS (−). Then, 25 μL of 1× lysis buffer was added on ice. After the plate was shaken for 15 seconds, 20 μL of lysate was charged in a new white plate. Further 100 μL of a luciferase assay reagent was added, and a […] was measured by a luminometer. Using 5 μL of lysate, quantitative determination of protein was also performed.

[4] = Test Example 1, amino acids, compared with the test section 1 containing only sucrose
[5] = Test Example 1, lysine + arginine 0.2 g each, carbohydrate 3.40 g each, 20 mL phosphate buffer
[6] = Test Example 2, gliadin 0.1 g + carbohydrate 3.4 g
[7] = Test Example 2, lactalbumin 0.05 g + carbohydrate 3.4 g
[8] = Test Example 2, lactic casein 0.01 g + carbohydrate 3.4 g
[9] = Test Example 2, ovalbumin 0.05 g + carbohydrate 3.4 g
[10] = Test Example 2, ovalbumin, lactalbumin, gliadin, lactic casein and soybean casein, compared with sections containing sucrose
[11] = Test Example 2, soybean casein 0.01 g + carbohydrate 3.4 g
[12] = Test Example 1, lysine + arginine 0.2 g each, carbohydrate 3.40 g each
[13] = gliadin + carbohydrate, protein 0.1 μg/mL, relative to control (AGE-BSA) = 1
[14] = lactalbumin + carbohydrate, protein 10 μg/mL, relative to control (AGE-BSA) = 1
[15] = lactic casein + carbohydrate, protein 1 μg/mL, relative to control (AGE-BSA) = 1
[16] = ovalbumin + carbohydrate, protein 10 μg/mL, relative to control (AGE-BSA) = 1
[17] = soybean casein + carbohydrate, protein 0.1 μg/mL, relative to control (AGE-BSA) = 1

T1 sequence (Q15109 23-404): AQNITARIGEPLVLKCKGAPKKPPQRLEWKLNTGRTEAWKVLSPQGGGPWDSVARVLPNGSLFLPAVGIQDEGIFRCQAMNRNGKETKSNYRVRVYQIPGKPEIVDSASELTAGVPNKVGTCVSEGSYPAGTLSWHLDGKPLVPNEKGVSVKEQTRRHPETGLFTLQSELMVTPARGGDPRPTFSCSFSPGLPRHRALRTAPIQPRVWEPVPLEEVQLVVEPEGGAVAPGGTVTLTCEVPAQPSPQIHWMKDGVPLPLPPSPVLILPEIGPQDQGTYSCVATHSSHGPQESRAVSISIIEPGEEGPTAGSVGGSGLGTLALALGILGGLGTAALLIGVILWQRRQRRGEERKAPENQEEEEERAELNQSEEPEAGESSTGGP

Structure (SMILES)	3-DG [1, 5]	3-DG [1, 6]	3-DG [1, 7]	3-DG [1, 8]	3-DG [1, 9]	3-DG [1, 11]	Fluorescent AGEs [2, 12]	Fluorescent AGEs [2, 6]	Fluorescent AGEs [2, 7]	Fluorescent AGEs [2, 8]	Fluorescent AGEs [2, 9]	Fluorescent AGEs [2, 11]	RAGE agonist activity [3, 13]	RAGE agonist activity [3, 14]	RAGE agonist activity [3, 15]	RAGE agonist activity [3, 16]	RAGE agonist activity [3, 17]	also measured
OC[C@@H](O)[C@@H](O[C@H]1O[C@H](CO)[C@@H](O)[C@H](O)[C@H]1O)[C@H](O)[C@@H](O)CO [Maltitol]	36 nmol/1 g of amino acid	240 nmol/1 g of protein	656 nmol/1 g of protein	2,734 nmol/1 g of protein	523 nmol/1 g of protein	1,446 nmol/1 g of protein	39 nmol/1 g of amino acid	632 nmol/1 g of protein	105 nmol/1 g of protein	84 nmol/1 g of protein	136 nmol/1 g of protein	20 nmol/1 g of protein	0.51	0.79	0.51	1.42	0.24	production of 3-DG [1, 4]: significantly decreased; production of 3-DG [1, 10]: significantly decreased; production of fluorescent AGEs [2, 4]: decreased; production of AGEs [2, 10]: decreased; RAGE agonist activity ([3]; test sections 2, 5 and 11 (ovalbumin, lactalbumin, lactic casein) compared with sections 1, 4 and 10 containing sucrose): decreased
OC[C@H]1O[C@@](CO)(O[C@H]2O[C@H](CO)[C@@H](O)[C@H](O)[C@H]2O)[C@@H](O)[C@@H]1O [Sucrose, reference compound]	151 nmol/1 g of amino acid	2,645 nmol/1 g of protein	4,758 nmol/1 g of protein	22,464 nmol/1 g of protein	4,532 nmol/1 g of protein	24,285 nmol/1 g of protein	79 nmol/1 g of amino acid	649 nmol/1 g of protein	119 nmol/1 g of protein	100 nmol/1 g of protein	168 nmol/1 g of protein	18 nmol/1 g of protein	0.53	0.81	0.53	1.66	0.34	–
